# Measurements reported in patent US20240245677A1, “SELECTED COMPOUNDS FOR TARGETED DEGRADATION OF BRD9” (C4 THERAPEUTICS, INC., priority 2021, published 2024).
# Read-outs that look alike come from different tables or passages of the source.
# Target: T1, BRD9 (Homo sapiens, UniProt Q9H8M2)
# T1 sequence (Q9H8M2 1-597): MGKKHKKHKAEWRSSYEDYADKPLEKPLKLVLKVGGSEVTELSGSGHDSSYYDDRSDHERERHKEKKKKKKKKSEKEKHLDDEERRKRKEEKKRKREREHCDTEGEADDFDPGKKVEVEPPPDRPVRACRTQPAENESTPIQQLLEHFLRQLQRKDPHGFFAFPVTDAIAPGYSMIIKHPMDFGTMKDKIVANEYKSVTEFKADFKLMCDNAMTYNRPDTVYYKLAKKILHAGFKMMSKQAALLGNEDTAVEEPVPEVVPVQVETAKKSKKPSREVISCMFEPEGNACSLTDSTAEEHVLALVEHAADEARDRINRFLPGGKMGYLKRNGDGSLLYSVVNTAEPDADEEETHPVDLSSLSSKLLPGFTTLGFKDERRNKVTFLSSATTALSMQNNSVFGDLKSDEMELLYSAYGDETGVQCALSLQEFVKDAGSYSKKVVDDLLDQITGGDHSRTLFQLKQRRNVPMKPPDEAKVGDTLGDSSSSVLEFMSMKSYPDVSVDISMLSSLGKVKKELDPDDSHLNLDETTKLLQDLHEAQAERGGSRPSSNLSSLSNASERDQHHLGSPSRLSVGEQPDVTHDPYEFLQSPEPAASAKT
# Experiment: BRD9 HiBiT degradation assay in 293T.166 (HEK293T.166) cells
# Type: cell-based
# Set-up: endogenously expressing BRD9 with HiBiT fusion tag via CRISPR; host or cells: HEK293T.166 (293T.166, BRD9-HiBiT HEK293, LgBiT by lentivirus)
# Experimental: Selected compounds were tested in a BRD9 degradation assay using the HiBit Method.
# Dulbecco's modified Eagle medium (DMEM) without phenol red and fetal bovine serum (FBS) were purchased from Gibco (Grand Island, NY, USA). Nano-Glo® HiBiT Lytic Assay System was purchased from Promega (Madison, WI, USA). 293T.166 (BRD9-HiBiT) cell line, endogenously expressing BRD9 with HiBiT fusion tag via CRISPR and ectopically expressing LgBiT tag, was purchased from Promega (Madison, WI, USA). 293T.167 (BRD7-HiBiT) cell line, endogenously expressing BRD7 with HiBiT fusion tag via CRISPR and ectopically expressing LgBiT tag, was purchased from Promega (Madison, WI, USA). 293T.92 (BRD4-HiBiT) cell line, endogenously expressing BRD4 with HiBiT fusion tag via CRISPR and ectopically expressing LgBiT tag, was generated in-house. Cell culture flasks and 384-well microplates were acquired from VWR (Radnor, PA, USA).
# BRD9 degradation was determined based on quantification of luminescent signal using Nano-Glo® HiBiT Lytic Assay kit. Test compounds were added to the 384-well plate from a top concentration of 10 μM with 11 points, half log titration in duplicates. 293T.166 cells were added into 384-well plates at a cell density of 10,000 cells per well. The plates were kept at 37° C. with 5% CO2 for 2 hours. BRD7 and BRD4 degradation was similarly determined with 293T.167 cells and 293T.92 cells, respectively. The cells treated in the absence of the test compound were the negative control and the cells without Nano-Glo® HiBiT Lytic reagent were the positive control. After 2-hour incubation, Nano-Glo® HiBiT Lytic Assay reagents were added to the cells. Luminescence was acquired on EnVision® Multilabel Reader (Catalog No. 2104-0010, Perkin Elmer Inc., Dumfries, VA, USA).
# This assay evaluates the degradation of BRD9 induced by treatment with Compound 1 or Compound 2 as measured by luminescence using Nano-Glo® HiBiT Lytic Assay System in HEK293 cells CRISPR-edited to endogenously express HiBiT tagged BRD9 and exogenously express LgBiT protein.
# Nano-Glo® HiBiT Lytic Assay System was purchased from Promega (Catalog No. N3050, Madison, WI, USA). BRD9-HiBiT HEK293 cells were purchased from Promega (Catalog No. CS302348, Madison, WI, USA). The cells were maintained in Dulbecco's modified Eagle medium (DMEM) without phenol red (Catalog No. 12430112, ThermoFisher Scientific, Waltham, MA, USA) supplemented with 10% fetal bovine serum (FBS) (Catalog No. 16000-044, Gibco, Grand Island, NY, USA) at 37° C. in an atmosphere of 5% CO2 in air. The HiBiT polypeptide tag was introduced into the C-terminus of the endogenous BRD9 locus by CRISPR-Cas9 and the LgBiT protein was introduced via Lentiviral infection to produce the modified HEK293T.166 cell line. The HiBiT polypeptide and LgBiT protein allow reconstitution of NanoBiT enzyme in the cells. The Nano-Glo® HiBiT Lytic Substrate was then added and activated by the NanoBiT enzyme following cell lysis to produce a luminescent signal that is directly proportional to the amount of HiBiT-tagged BRD9.
# The HEK293T.166 cells were routinely sub-cultured to maintain cell density between 30-80% confluence, not to exceed 20 passages. Cells were washed with PBS pH 7.4 (Catalog No. 10010049, ThermoFisher Scientific, Waltham, MA, USA), trypsinized for 5 minutes at 37° C., and resuspended in fresh growth media without phenol red. An aliquot was diluted 2× with Trypan Blue solution 0.4% (Catalog No. 15250061, ThermoFisher Scientific, Waltham, MA, USA) and cell count determined. Cell concentration was adjusted with growth media without phenol red to 3.3×10^5 cells/mL.
# Compound 1 or Compound 2 was prepared by dissolving neat compounds in DMSO (Catalog No. D8418, Sigma-Aldrich, Inc., St. Louis, MO, USA) to generate 10 mM stock solution and stored at −20° C. […]
structure (smiles),measurement,setting,value
"COc1cc(-c2cn(C)c(=O)c(C)c2C)cc(OC)c1CN1CC[C@H](N2CCN(c3ccc(N[C@H]4CCC(=O)NC4=O)cc3F)CC2)C(F)(F)C1 [Compound 1, (S)-3-((4-(4-((S)-1-(2,6-dimethoxy-4-(1,4,5-trimethyl-6-oxo-1,6-dihydropyridin-3-yl)benzyl)-3,3-difluoropiperidin-4-yl)piperazin-1-yl)-3-fluorophenyl)amino)-piperidine-2,6-dione]","% BRD9 Remaining Relative to Vehicle Control at 2 hr, Mean",0.010 nM,92.3%
same,"% BRD9 Remaining Relative to Vehicle Control at 2 hr, Mean",0.032 nM,96.4%
same,"% BRD9 Remaining Relative to Vehicle Control at 2 hr, Mean",0.100 nM,91.6%
same,"% BRD9 Remaining Relative to Vehicle Control at 2 hr, Mean",0.315 nM,86.4%
same,"% BRD9 Remaining Relative to Vehicle Control at 2 hr, Mean",0.997 nM,76.7%
same,"% BRD9 Remaining Relative to Vehicle Control at 2 hr, Mean",3.15 nM,51.6%
same,"% BRD9 Remaining Relative to Vehicle Control at 2 hr, Mean",10.0 nM,21.7%
same,"% BRD9 Remaining Relative to Vehicle Control at 2 hr, Mean",31.7 nM,7.9%
same,"% BRD9 Remaining Relative to Vehicle Control at 2 hr, Mean",100 nM,5.0%
same,"% BRD9 Remaining Relative to Vehicle Control at 2 hr, Mean",316 nM,5.7%
same,"% BRD9 Remaining Relative to Vehicle Control at 2 hr, Mean",999 nM,4.8%
same,DC50,"293T.166 cells, 2.0 hours, read-out: HiBiT-Degradation 293T.166 BRD9 2.0 hours (DC50)",< 100 nM
same,Emax,"BRD9-HiBiT, 293T.166 cells, 2 hours, read-out: Mean Emax (%) ± SD",4.14 ± 1.15%
same,Dmax,"HEK293T.166 cells, 2-hour treatment, read-out: maximal degradation of BRD9",> 95%
same,DC50,"summary statement, read-out: DC50 against BRD9",2 to 75 nM
